Key:
[1] = Half life in male Sprague-Dawley rat at 1 mg/kg, iv measured after 24 hrs by LC/MS/MS analysis; assay type: ADME, organism-based; conditions: in vivo
[2] = Metabolic stability in male ICR mouse liver microsomes assessed as parent compound remaining at 1 uM measured after 30 mins in presence of NADPH by LC-MS analysis; assay type: ADME, Microsome; conditions: read-out: Stability
[3] = Metabolic stability in male SD rat liver microsomes assessed as parent compound remaining at 1 uM measured after 30 mins in presence of NADPH by LC-MS analysis; assay type: ADME, Microsome; conditions: Sprague-Dawley, read-out: Stability
[4] = molecular target: Isocitrate dehydrogenase [NADP], mitochondrial (Homo sapiens, UniProt P48735, R140Q); assay: Inhibition of IDH2 R140Q mutant (unknown origin) using alpha-ketoglutarate as substrate preincubated with compound for 16 hrs followed by substrate addition and measured after 1 hr in presence of NADPH by fluorescence based analysis
Chain of Isocitrate dehydrogenase [NADP], mitochondrial (P48735 40-452 R140Q limits assumed): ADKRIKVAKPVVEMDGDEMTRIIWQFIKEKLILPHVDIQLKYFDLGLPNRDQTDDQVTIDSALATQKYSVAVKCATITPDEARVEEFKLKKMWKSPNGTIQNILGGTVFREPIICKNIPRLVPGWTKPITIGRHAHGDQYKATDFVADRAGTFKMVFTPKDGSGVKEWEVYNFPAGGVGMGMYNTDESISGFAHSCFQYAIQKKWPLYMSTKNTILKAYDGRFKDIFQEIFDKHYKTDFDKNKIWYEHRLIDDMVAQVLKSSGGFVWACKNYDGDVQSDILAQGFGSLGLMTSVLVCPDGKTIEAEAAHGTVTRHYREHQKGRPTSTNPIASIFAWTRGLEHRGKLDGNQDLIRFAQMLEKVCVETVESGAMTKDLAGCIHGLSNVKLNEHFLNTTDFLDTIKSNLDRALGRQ

[5] = Inhibition of IDH2 R140Q mutant in human TF-1 cells incubated for 72 hrs by measuring 2-HG production by fluorescence based analysis; assay type: functional, cell-based; conditions: TF-1, 72 h
[6] = molecular target: Voltage-gated inwardly rectifying potassium channel KCNH2 (Homo sapiens, UniProt Q12809); assay: Inhibition of hERG expressed in CHO cells by manual patch-clamp assay; assay type: toxicity, cell-based
Chain of Voltage-gated inwardly rectifying potassium channel KCNH2 (Q12809 whole entry): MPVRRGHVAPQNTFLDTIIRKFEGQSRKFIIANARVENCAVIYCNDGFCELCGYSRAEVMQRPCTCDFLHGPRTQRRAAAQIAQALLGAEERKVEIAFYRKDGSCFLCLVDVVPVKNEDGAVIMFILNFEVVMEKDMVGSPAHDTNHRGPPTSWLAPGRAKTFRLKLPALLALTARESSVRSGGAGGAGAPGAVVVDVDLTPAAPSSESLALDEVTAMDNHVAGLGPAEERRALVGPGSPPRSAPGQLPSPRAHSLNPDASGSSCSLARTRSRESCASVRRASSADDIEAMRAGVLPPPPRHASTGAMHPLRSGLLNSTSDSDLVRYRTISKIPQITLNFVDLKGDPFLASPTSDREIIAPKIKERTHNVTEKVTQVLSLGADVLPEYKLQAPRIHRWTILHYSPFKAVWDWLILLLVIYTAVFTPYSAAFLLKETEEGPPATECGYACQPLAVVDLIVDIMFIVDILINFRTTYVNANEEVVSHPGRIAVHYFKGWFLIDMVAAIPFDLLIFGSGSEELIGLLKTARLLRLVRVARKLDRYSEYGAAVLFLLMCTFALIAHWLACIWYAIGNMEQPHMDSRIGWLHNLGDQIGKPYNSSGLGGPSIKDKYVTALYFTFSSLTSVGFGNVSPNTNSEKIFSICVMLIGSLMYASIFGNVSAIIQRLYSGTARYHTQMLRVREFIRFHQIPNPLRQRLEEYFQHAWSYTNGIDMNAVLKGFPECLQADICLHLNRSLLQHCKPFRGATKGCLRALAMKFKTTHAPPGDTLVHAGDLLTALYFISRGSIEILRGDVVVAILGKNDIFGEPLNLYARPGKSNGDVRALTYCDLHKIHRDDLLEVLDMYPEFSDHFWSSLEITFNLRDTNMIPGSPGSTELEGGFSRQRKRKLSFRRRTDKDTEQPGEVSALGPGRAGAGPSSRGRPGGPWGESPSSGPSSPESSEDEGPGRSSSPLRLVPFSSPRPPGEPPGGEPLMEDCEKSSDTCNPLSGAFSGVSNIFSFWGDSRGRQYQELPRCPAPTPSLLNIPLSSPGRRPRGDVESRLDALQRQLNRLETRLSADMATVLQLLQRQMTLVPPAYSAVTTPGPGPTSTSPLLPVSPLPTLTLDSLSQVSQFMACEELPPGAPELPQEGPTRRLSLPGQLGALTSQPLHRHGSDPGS

[7] = Half life in male Sprague-Dawley rat at 5 mg/kg, po measured after 24 hrs by LC/MS/MS analysis; assay type: ADME, organism-based; conditions: in vivo
[8] = Oral bioavailability in male Sprague-Dawley rat at 5 mg/kg measured after 24 hrs by LC/MS/MS analysis; assay type: ADME, organism-based; conditions: in vivo
[9] = Cmax in male ICR mouse at 10 mg/kg, po measured after 8 hrs by LC/MS/MS analysis; assay type: ADME, organism-based; conditions: in vivo
[10] = Inhibition of IDH2 R172K mutant in human HEK293 cells incubated for 72 hrs by measuring 2-HG production by fluorescence based analysis; assay type: functional, cell-based; conditions: HEK293, 72 h
[11] = Clearance in male ICR mouse at 2.5 mg/kg, iv measured after 8 hrs by LC/MS/MS analysis; assay type: ADME, organism-based; conditions: in vivo
[12] = Volume of distribution at steady state in male ICR mouse at 2.5 mg/kg, iv measured after 8 hrs by LC/MS/MS analysis; assay type: ADME, organism-based; conditions: in vivo, read-out: Vdss
[13] = Cmax in male Sprague-Dawley rat at 5 mg/kg, po measured after 24 hrs by LC/MS/MS analysis; assay type: ADME, organism-based; conditions: in vivo
[14] = Apparent permeability across basolateral to apical side in human Caco-2 cells at 10 uM incubated for 1 hrs by LC-MS/MS analysis
[15] = In vivo inhibition of 2-HG in BALB/c nude mouse xenografted with human U-87 MG cells harboring IDH2 R140Q mutant at 25 mg/kg, po measured after 24 hrs post dose; assay type: functional; conditions: Mus musculus, BALB/c, U-87 MG
[16] = AUC(0 to infinity) in male Sprague-Dawley rat at 1 mg/kg, iv measured after 24 hrs by LC/MS/MS analysis; assay type: ADME, organism-based; conditions: in vivo
[17] = Inhibition of IDH1 R132H mutant in human TF-1 cells incubated for 72 hrs by measuring 2-HG production by fluorescence based analysis; assay type: functional, cell-based; conditions: TF-1, 72 h
[18] = Apparent permeability across apical to basolateral side in human Caco-2 cells at 10 uM incubated for 1 hrs by LC-MS/MS analysis
[19] = AUC(0 to infinity) in male Sprague-Dawley rat at 5 mg/kg, po measured after 24 hrs by LC/MS/MS analysis; assay type: ADME, organism-based; conditions: in vivo
[20] = Oral bioavailability in male ICR mouse at 10 mg/kg measured after 8 hrs by LC/MS/MS analysis; assay type: ADME, organism-based; conditions: in vivo
[21] = Half life in male ICR mouse at 2.5 mg/kg, iv measured after 8 hrs by LC/MS/MS analysis; assay type: ADME, organism-based; conditions: in vivo
[22] = In vivo inhibition of 2-HG in BALB/c nude mouse xenografted with human U-87 MG cells harboring IDH2 R140Q mutant at 25 mg/kg, po measured after 16 hrs post dose; assay type: functional
Adenosine receptor A3 = molecular target: T1, Adenosine receptor A3 (Homo sapiens, UniProt P0DMS8); assay: Inhibition of adenosine A3 receptor (unknown origin); assay type: toxicity
T1 sequence (P0DMS8 whole entry): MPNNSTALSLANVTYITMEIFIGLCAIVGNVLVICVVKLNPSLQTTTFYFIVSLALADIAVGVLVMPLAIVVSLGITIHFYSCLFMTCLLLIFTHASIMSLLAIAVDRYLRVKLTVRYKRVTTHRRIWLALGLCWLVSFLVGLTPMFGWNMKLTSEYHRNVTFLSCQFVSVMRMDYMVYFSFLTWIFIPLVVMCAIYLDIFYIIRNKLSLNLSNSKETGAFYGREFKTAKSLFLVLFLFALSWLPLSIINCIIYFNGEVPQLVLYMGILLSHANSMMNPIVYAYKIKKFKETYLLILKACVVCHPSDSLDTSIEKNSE

[23] = Half life in male ICR mouse at 10 mg/kg, po measured after 8 hrs by LC/MS/MS analysis; assay type: ADME, organism-based; conditions: in vivo
UGT1A1 = molecular target: T2, UGT1A1 (Homo sapiens, UniProt P22309); assay: Inhibition of UGT1A1 (unknown origin) at 10 uM relative to control; assay type: ADME
T2 sequence (P22309 whole entry): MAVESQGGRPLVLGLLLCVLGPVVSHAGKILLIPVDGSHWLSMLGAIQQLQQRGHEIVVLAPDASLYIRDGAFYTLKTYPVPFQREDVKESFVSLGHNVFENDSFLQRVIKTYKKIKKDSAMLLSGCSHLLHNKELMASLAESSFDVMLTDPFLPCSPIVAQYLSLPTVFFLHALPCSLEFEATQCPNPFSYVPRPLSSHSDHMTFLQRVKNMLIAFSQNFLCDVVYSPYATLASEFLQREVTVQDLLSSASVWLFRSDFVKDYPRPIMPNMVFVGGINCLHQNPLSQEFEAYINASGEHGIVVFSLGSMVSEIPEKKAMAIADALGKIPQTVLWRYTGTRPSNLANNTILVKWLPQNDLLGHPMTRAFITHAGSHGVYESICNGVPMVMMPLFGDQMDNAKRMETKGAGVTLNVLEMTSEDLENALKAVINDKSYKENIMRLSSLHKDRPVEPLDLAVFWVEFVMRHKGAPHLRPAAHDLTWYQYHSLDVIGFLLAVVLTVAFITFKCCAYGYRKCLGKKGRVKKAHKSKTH

[24] = AUC(0 to t) in male Sprague-Dawley rat at 1 mg/kg, iv measured after 144 hrs by LC/MS/MS analysis; assay type: ADME, organism-based; conditions: in vivo
[25] = In vivo inhibition of 2-HG in BALB/c nude mouse xenografted with human HT-1080 cells harboring IDH1 R132C mutant at 25 mg/kg, po measured after 16 to 40 hrs post dose; assay type: functional; conditions: time 16-40 hrs
[26] = Volume of distribution at steady state in male Sprague-Dawley rat at 1 mg/kg, iv measured after 24 hrs by LC/MS/MS analysis; assay type: ADME, organism-based; conditions: in vivo, read-out: Vdss
[27] = Ratio of drug concentration in brain to plasma of BALB/c nude mouse xenografted with human U-87 MG cells harboring IDH2 R140Q mutant at 50 mg/kg measured after 16 hrs by LC/MS/MS analysis; assay type: ADME, organism-based; conditions: read-out: BPR

half-life [1]: 2990 min
remaining at 0.5 h, 1 µM [2]: 98.4%
remaining at 0.5 h, 1 µM [3]: 99.5%
IC50 [4]: 28 nM
IC50 [5]: 21 nM
half-life [7]: 2.1 days
bioavailability [8]: 113%
Cmax [9]: 2050 ng/mL
IC50 [10]: 425 nM
clearance [11]: 3.3 mL/min/kg
Vd [12]: 2.57 L/kg
Cmax [13]: 1490 ng/mL
Papp B→A at 1 h, 10 µM [14]: 24 ×10⁻⁶ cm/s
AUC(0-inf) [16]: 19800 ng·h/mL
IC50 [17]: 31 nM
Papp A→B at 1 h, 10 µM [18]: 53.3 ×10⁻⁶ cm/s
AUC(0-inf) [19]: 112 µg·h/mL
bioavailability [20]: 84.2%
half-life [21]: 636 min
half-life [23]: 1210 min
inhibition at 10 µM (UGT1A1): 46.7%
AUC(0-t) at 144 h [24]: 17100 ng·h/mL
Vd [26]: 3.67 L/kg
Kp at 16 h [27]: 2.8
Compound: C[C@@H](Nc1nc(N[C@H](C)C(F)(F)F)nc(C2=C(F)[C@H](O)C(F)(F)CC2)n1)C(F)(F)F [RANOSIDENIB]
IC50 [6]: > 30 µM
inhibition in vivo at 25 mg/kg [15]: 98%
inhibition in vivo at 25 mg/kg [22]: 96%
IC50 (Adenosine receptor A3): 8.5 µM
inhibition in vivo at 25 mg/kg [25]: ≥ 90%

From ChEMBL document CHEMBL6103672, “Discovery of HMPL-306 (Ranosidenib), a New Potent and Selective Dual Inhibitor of Mutant IDH1 and 2 in Clinical Development for Cancer Treatment” (ACS Med Chem Lett, 2025)
